Experimental data: paper PMC6297231 (Nature Communications, 2018)

How the values were obtained:
Test in all cases: cells
[1] = test system: 647V; conditions: Homo sapiens, 6 h, read-out: AZD5991 6h EC50
Experimental: (§1) Cells were plated at 3000 cells/well in 384-well white plates in corresponding cell growth media. […] Caspase-3/7 activation was subsequently determined using a Caspase-Glo 3/7 Reagent (Promega) and viability was assayed using the CellTiter-Glo Reagent (Promega) as described in manufacturer’s instructions. Dose–response curves for caspase-3/7 activation and viability were plotted and analyzed (including EC50 and GI50 determination) using GraphPad Prism. Percentage of caspase activation was calculated against the maximum caspase activation value (100%) obtained with a proprietary cell kill control.

[2] = test system: A375; conditions: Homo sapiens, A-375, 6 h, read-out: AZD5991 6h EC50
Experimental: as §1

[3] = test system: ARH77; conditions: Homo sapiens, ARH-77, 6 h, read-out: AZD5991 6h EC50
Experimental: as §1

[4] = test system: COLO829; conditions: Homo sapiens, COLO-829, 6 h, read-out: AZD5991 6h EC50
Experimental: as §1

[5] = test system: DLD1; conditions: Homo sapiens, DLD-1, 6 h, read-out: AZD5991 6h EC50
Experimental: as §1

[6] = test system: GIST T1; conditions: Homo sapiens, GISTT1, 6 h, read-out: AZD5991 6h EC50
Experimental: as §1

[7] = test system: H1703; conditions: Homo sapiens, NCI-H1703, 6 h, read-out: AZD5991 6h EC50
Experimental: as §1

[8] = test system: H196; conditions: NCI-H196, 6 h, read-out: AZD5991 6h EC50
Experimental: as §1

[9] = test system: H209; conditions: Homo sapiens, NCI-H209, 6 h, read-out: AZD5991 6h EC50
Experimental: as §1

[10] = test system: H2171; conditions: Homo sapiens, NCI-H2171, 6 h, read-out: AZD5991 6h EC50
Experimental: as §1

[11] = test system: H2286; conditions: Homo sapiens, NCI-H2286, 6 h, read-out: AZD5991 6h EC50
Experimental: as §1

[12] = test system: H345; conditions: Homo sapiens, NCI-H345, 6 h, read-out: AZD5991 6h EC50
Experimental: as §1

[13] = test system: H358; conditions: Homo sapiens, NCI-H358, 6 h, read-out: AZD5991 6h EC50
Experimental: as §1

[14] = test system: H460; conditions: Homo sapiens, NCI-H460, 6 h, read-out: AZD5991 6h EC50
Experimental: as §1

[15] = test system: H526; conditions: Homo sapiens, NCI-H526, 6 h, read-out: AZD5991 6h EC50
Experimental: as §1

[16] = test system: HMCB; conditions: Homo sapiens, 6 h, read-out: AZD5991 6h EC50
Experimental: as §1

[17] = test system: Kasumi3; conditions: Kasumi-3, 6 h, read-out: AZD5991 6h EC50
Experimental: as §1

[18] = test system: LP1; conditions: Homo sapiens, LP-1, 6 h, read-out: AZD5991 6h EC50
Experimental: as §1

[19] = test system: LUDLU1; conditions: LUDLU-1, 6 h, read-out: AZD5991 6h EC50
Experimental: as §1

[20] = test system: MEWO; conditions: Homo sapiens, 6 h, read-out: AZD5991 6h EC50
Experimental: as §1

[21] = test system: MONOMAC6; conditions: Homo sapiens, MONO-MAC-6, 6 h, read-out: AZD5991 6h EC50
Experimental: as §1

[22] = test system: NCI-H929; conditions: Homo sapiens, NCI-H929, 6 h, read-out: AZD5991 6h EC50
Experimental: as §1

[23] = test system: OV90; conditions: Homo sapiens, OV-90, 6 h, read-out: AZD5991 6h EC50
Experimental: as §1

[24] = test system: PL21; conditions: PL-21, 6 h, read-out: AZD5991 6h EC50
Experimental: as §1

[25] = test system: Pfeiffer; conditions: Homo sapiens, 6 h, read-out: AZD5991 6h EC50
Experimental: as §1

[26] = test system: REC1; conditions: Homo sapiens, Rec1, 6 h, read-out: AZD5991 6h EC50
Experimental: as §1

[27] = test system: Ramos; conditions: Homo sapiens, 6 h, read-out: AZD5991 6h EC50
Experimental: as §1

[28] = test system: SKMEL2; conditions: Homo sapiens, SK-MEL-2, 6 h, read-out: AZD5991 6h EC50
Experimental: as §1

[29] = test system: SNU16; conditions: Homo sapiens, SNU-16, 6 h, read-out: AZD5991 6h EC50
Experimental: as §1

[30] = test system: Sudhl4; conditions: Homo sapiens, SU-DHL-4, 6 h, read-out: AZD5991 6h EC50
Experimental: as §1

[31] = test system: Sudhl8; conditions: Homo sapiens, SU-DHL-8, 6 h, read-out: AZD5991 6h EC50
Experimental: as §1

[32] = test system: T47D; conditions: Homo sapiens, 6 h, read-out: AZD5991 6h EC50
Experimental: as §1

[33] = test system: VAL; conditions: 6 h, read-out: AZD5991 6h EC50
Experimental: as §1

[34] = test system: WSUDLCL2; conditions: Homo sapiens, WSUDLCL2, 6 h, read-out: AZD5991 6h EC50
Experimental: as §1

[35] = test system: Z-138; conditions: Homo sapiens, Z-138, 6 h, read-out: AZD5991 6h EC50
Experimental: as §1

[36] = test system: ZR751; conditions: Homo sapiens, ZR-75-1, 6 h, read-out: AZD5991 6h EC50
Experimental: as §1

Cc1c2c(nn1C)CSCc1cc(n(C)n1)CSc1cc(c3ccccc3c1)OCCCc1c(C(=O)O)n(C)c3c-2c(Cl)ccc13 (atropisomer, axis not shown; (Ra)) [(Ra)-7] was tested, and the EC50 [1] was 26.5 µM, the EC50 [2] was > 30 µM and the EC50 [3] was 23.9 µM. For the same compound, the EC50 [4] was > 30 µM, the EC50 [5] was 29.1 µM and the EC50 [6] was > 30 µM. The EC50 [7] was 0.801 µM, the EC50 [8] was > 30 µM and the EC50 [9] was > 30 µM. For the same compound, the EC50 [10] was 0.141 µM, the EC50 [11] was > 30 µM and the EC50 [12] was > 30 µM. The EC50 [13] was > 30 µM, the EC50 [14] was > 30 µM and the EC50 [15] was > 30 µM. For the same compound, the EC50 [16] was 25.9 µM, the EC50 [17] was 0.882 µM and the EC50 [18] was 0.249 µM. For the same compound, the EC50 [19] was 1.89 µM, the EC50 [20] was > 30 µM and the EC50 [21] was 0.268 µM. The EC50 [22] was 0.06 µM, the EC50 [23] was > 30 µM and the EC50 [24] was 0.409 µM. The EC50 [25] was > 30 µM, the EC50 [26] was 2.01 µM and the EC50 [27] was 0.028 µM. It also gave an EC50 [28] of 9.48 µM, an EC50 [29] of 0.183 µM and an EC50 [30] of 0.266 µM. The EC50 [31] was 0.595 µM, the EC50 [32] was > 30 µM and the EC50 [33] was 0.172 µM. The EC50 [34] was 0.159 µM, the EC50 [35] was > 30 µM and the EC50 [36] was > 30 µM.
